Laboratory results taken from patent publication US8481586B2, “Pyrrolo[2,3-a] carbazoles and use thereof as PIM kinase inhibitors” (Centre National de la Recherche Scientifique, priority 2008, dated 2013).
pIC50: −log10 of the molar value.

Columns and labels:
Type in all cases: biochemical
[1] = biological target: PIM-1 (Homo sapiens (Human), UniProt P11309); experiment: inhibition test on kinase PIM-1 (residual activity, IC50); settings: product at 10 μmol/L, Table 2, N.I. = not inhibitory; for remaining activity at 10 µM: read-out: Percentage of residual activity PIM-1
Sequence of PIM-1 (P11309 whole entry, species assumed): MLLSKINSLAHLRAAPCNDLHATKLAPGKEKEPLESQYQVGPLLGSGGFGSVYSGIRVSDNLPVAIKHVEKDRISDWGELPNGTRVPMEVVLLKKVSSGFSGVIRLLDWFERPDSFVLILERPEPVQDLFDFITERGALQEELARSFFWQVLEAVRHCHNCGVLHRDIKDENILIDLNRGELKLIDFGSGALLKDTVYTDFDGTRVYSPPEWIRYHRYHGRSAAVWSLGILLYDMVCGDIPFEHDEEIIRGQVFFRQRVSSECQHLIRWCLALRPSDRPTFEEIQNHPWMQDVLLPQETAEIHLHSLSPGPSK
Source text: (§1) MKK1, ERK 1, ERK 2, JNK1, JNK2, JNK3, p38a MAPK, p38b MAPK, p38g MAPK, p38s MAPK, ERK8, RSK1, RSK2, PDK1, PKBa, PKBb, SGK1, S6K1, PKA, ROCK2, PRK2, PKCa, PKC zeta, PKD1, MSK1, MNK1, MNK2, MAPKAP-K2, MAPKAP-K3, PRAK, CAMKKa, CAMKKb, CAMK1, SmMLCK, PHK, CHK1, CHK2, GSK3b, CDK2/cyclin A, PLK1, PLK1 (Okadaic acid), Aurora B, Aurora C, AMPK, MARK3, BRSK2, MELK, CK1, CK2, NEK2a, NEK6, NEK7, IKKb, PIM-1, PIM-2, PIM-3, SRPK1, MST2, EF2K, HIPK2, HIPK3, PAK-4, PAK5, PAK6, Src, Lck, CSK.
(§2) The results in terms of residual activity of the kinases after being placed in contact with the compounds of Examples 2, 3 and 5, at a concentration of 10 μM (10 μmol/L), are shown in Table 1 below.
(§3) The higher the residual activity of the kinase tested, the lower the inhibitory activity of the test compounds on the tested kinase.
(§4) The compounds according to the invention were then tested on the kinases PIM-1, PIM-2 and PIM-3.
(§5) The results in terms of percentage of residual activity after placing the compounds according to the invention in contact with each of the kinases PIM-1, PIM-2 and PIM-3 are given in Table 2 below.
(§6) The higher the residual activity, the lower the inhibitory activity of the test compounds.
(§7) The mean inhibitory concentrations (IC50) of certain preferred compounds of the invention were determined in the following manner: the IC50 values were measured after performing the inhibition tests on the kinases PIM-1, PIM-2 and PIM-3 at ten different concentrations for each test compound, and the IC50 value was determined from the dose-inhibition curves obtained.

[2] = biological target: PIM-3 (Homo sapiens (Human), UniProt Q86V86); experiment: inhibition test on kinase PIM-3 (residual activity, IC50); settings: for remaining activity at 10 µM: product at 10 μmol/L, Table 2, N.I. = not inhibitory, read-out: Percentage of residual activity PIM-3; for pIC50: ten concentrations, dose-inhibition curve
Source text: as §1, §2, §3, §4, §5, §6, §7

[3] = biological target: PIM-2 (Homo sapiens (Human), UniProt Q9P1W9); experiment: inhibition test on kinase PIM-2 (residual activity, IC50); settings: product at 10 μmol/L, Table 2, N.I. = not inhibitory; for remaining activity at 10 µM: read-out: Percentage of residual activity PIM-2
Sequence of PIM-2 (Q9P1W9 whole entry, species assumed): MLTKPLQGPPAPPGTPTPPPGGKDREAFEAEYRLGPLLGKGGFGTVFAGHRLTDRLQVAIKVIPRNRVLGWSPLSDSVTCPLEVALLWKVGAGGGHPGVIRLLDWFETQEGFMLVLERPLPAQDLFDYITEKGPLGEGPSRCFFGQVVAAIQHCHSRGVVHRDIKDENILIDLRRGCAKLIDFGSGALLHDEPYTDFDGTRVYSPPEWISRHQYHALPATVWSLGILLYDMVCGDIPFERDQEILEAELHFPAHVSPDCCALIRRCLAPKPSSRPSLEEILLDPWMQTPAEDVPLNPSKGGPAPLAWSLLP
Source text: as §1, §2, §3, §4, §5, §6, §7

| remaining activity at 10 µM [1] [%] | remaining activity at 10 µM [2] [%] | remaining activity at 10 µM [3] [%] | pIC50 [2] | Percentage of residual activity PIM-1 [1] | Percentage of residual activity PIM-2 [3] | SMILES |
| --- | --- | --- | --- | --- | --- | --- |
| 15 | 15 | 55 | – | – | – | O=Cc1c[nH]c2c1ccc1c3cc(-c4ccc(F)cc4)ccc3[nH]c12 [Example 39, 7-(4-fluorophenyl)-1,10-dihydropyrrolo[2,3-a]carbazole-3-carbaldehyde] |
| 35 | 20 | 84 | – | – | – | Fc1ccc2[nH]c3c(ccc4cc[nH]c43)c2c1 [Example 28, 7-fluoro-1,10-dihydropyrrolo[2,3-a]carbazole] |
| 9 | 4 | 26 | – | – | – | N#Cc1ccc2[nH]c3c(ccc4cc[nH]c43)c2c1 [Example 31, 1,10-dihydropyrrolo[2,3-a]carbazole-7-carbonitrile] |
| 29 | 31 | 70 | – | – | – | O=Cc1c[nH]c2c1ccc1c3cc(-c4ccc(OC(F)(F)F)cc4)ccc3[nH]c12 [Example 42, 7-(4-trifluoromethoxyphenyl)-1,10-dihydropyrrolo[2,3-a]carbazole-3-carbaldehyde] |
| 9 | 11 | 23 | – | – | – | O=[N+]([O-])c1ccc2[nH]c3c(ccc4cc[nH]c43)c2c1 [Example 32, 7-nitro-1,10-dihydropyrrolo[2,3-a]carbazole] |
| 20 | 7 | 30 | 6.77 | – | – | O=C(c1c[nH]c2c1ccc1c3ccccc3[nH]c12)C(F)(F)F [Example 6, 1-(1,10-dihydropyrrolo[2,3-a]carbazol-3-yl)-2,2,2-trifluoroethanone] |
| 15 | 8 | 39 | – | – | – | Cc1ccc2c(c1)[nH]c1c2ccc2c(C=O)c[nH]c21 [Example 52, 8-methyl-1,10-dihydropyrrolo[2,3-a]carbazole-3-carbaldehyde] |
| 10 | 14 | 36 | – | – | – | Clc1cc(Cl)c2c(c1)[nH]c1c2ccc2cc[nH]c21 [Example 30, 6,8-dichloro-1,10-dihydropyrrolo[2,3-a]carbazole] |
| – | 35 | – | – | N.I. | N.I. | O=Cc1c[nH]c2c1ccc1c3cc([N+](=O)[O-])ccc3[nH]c12 [Example 50, 7-nitro-1,10-dihydropyrrolo[2,3-a]carbazole-3-carbaldehyde] |
| 44 | 33 | 47 | – | – | – | CCOC(=O)C(=O)c1c[nH]c2c1ccc1c3ccccc3[nH]c12 [Example 8, ethyl 2-(1,10-dihydropyrrolo[2,3-a]carbazol-3-yl)-2-oxoacetate] |
| 90 | 43 | – | – | – | N.I. | Brc1cccc2c1[nH]c1c2ccc2cc[nH]c21 [Example 27, 9-bromo-1,10-dihydropyrrolo[2,3-a]carbazole] |
| 12 | 8 | 46 | 6.36 | – | – | Brc1ccc2[nH]c3c(ccc4cc[nH]c43)c2c1 [Example 15, 7-bromo-1,10-dihydropyrrolo[2,3-a]carbazole] |
| 39 | 48 | 70 | – | – | – | O=Cc1c[nH]c2c1ccc1c3cc(-c4ccc(-c5ccccc5)cc4)ccc3[nH]c12 [Example 37, 7-(4-biphenyl)-1,10-dihydropyrrolo[2,3-a]carbazole-3-carbaldehyde] |
| 54 | 39 | 51 | – | – | – | CCN(CC)C(=O)C(=O)c1c[nH]c2c1ccc1c3ccccc3[nH]c12 [Example 10, 2-(1,10-dihydropyrrolo[2,3-a]carbazol-3-yl)-N,N-diethyl-2-oxoacetamide] |
| 3 | 9 | 28 | – | – | – | O=Cc1c[nH]c2c1ccc1c3cccc(Br)c3[nH]c12 [Example 45, 9-bromo-1,10-dihydropyrrolo[2,3-a]carbazole-3-carbaldehyde] |
| 8 | 11 | 37 | – | – | – | Brc1cccc2[nH]c3c(ccc4cc[nH]c43)c12 [Example 26, 6-bromo-1,10-dihydropyrrolo[2,3-a]carbazole] |
| 2 | 5 | 6 | – | – | – | O=Cc1c[nH]c2c1ccc1c2[nH]c2cccc(Br)c21 [Example 44, 6-bromo-1,10-dihydropyrrolo[2,3-a]carbazole-3-carbaldehyde] |
| 1 | 10 | 14 | – | – | – | CCc1cccc2c1[nH]c1c2ccc2c(C=O)c[nH]c21 [Example 51, 9-ethyl-1,10-dihydropyrrolo[2,3-a]carbazole-3-carbaldehyde] |
| 81 | 13 | – | – | – | N.I. | Cc1ccc2c(c1)[nH]c1c2ccc2cc[nH]c21 [Example 35, 8-methyl-1:10-dihydropyrrolo[2,3-a]carbazole] |
| 46 | 39 | 51 | – | – | – | COc1cccc(-c2ccc3[nH]c4c(ccc5cc[nH]c54)c3c2)c1 [Example 18, 7-(3-methoxyphenyl)-1,10-dihydropyrrolo[2,3-a]-carbazole] |
| 5 | 3 | 11 | – | – | – | O=Cc1c[nH]c2c1ccc1c3cccc(F)c3[nH]c12 [Example 47, 9-Fluoro-1,10-dihydropyrrolo[2,3-a]carbazole-3-carbaldehyde] |
| 4 | 5 | 21 | – | – | – | O=Cc1c[nH]c2c1ccc1c3cc(F)ccc3[nH]c12 [Example 46, 7-Fluoro-1,10-dihydropyrrolo[2,3-a]carbazole-3-carbaldehyde] |
| 41 | 21 | 27 | – | – | – | CCN(CC)C(=O)/C(=N\O)c1c[nH]c2c1ccc1c3ccccc3[nH]c12 [Example 13, 2-(1,10-dihydropyrrolo[2,3-a]carbazol-3-yl)-N,N-diethyl-2-hydroxyiminoethanamide] |
| 61 | 64 | 62 | – | – | – | O=S(=O)(c1ccccc1)n1ccc2ccc3c4ccccc4[nH]c3c21 [Example 1, 1-benzenesulfonyl-1,10-dihydropyrrolo[2,3-a]carbazole] |
| 28 | 23 | 96 | – | – | – | CCc1cccc2c1[nH]c1c2ccc2cc[nH]c21 [Example 33, 9-ethyl-1,10-dihydropyrrolo[2,3-a]carbazole] |
| 16 | 15 | 53 | – | – | – | O=Cc1c[nH]c2c1ccc1c3cc(-c4ccccc4)ccc3[nH]c12 [Example 38, 7-phenyl-1,10-dihydropyrrolo[2,3-a]carbazole-3-carbaldehyde] |
| 92 | 14 | – | – | – | N.I. | N#Cc1ccc2[nH]c3c(ccc4c(C=O)c[nH]c43)c2c1 [Example 49, 3-formyl-1,10-dihydropyrrolo[2,3-a]carbazole-7-carbonitrile] |
